Consider 49 compounds from US12234227B2, “Pyrazole derivatives as H4 antagonist compounds” (NXERA PHARMA UK LIMITED, priority 2018, dated 2025).

For one series, the target named is T1, human H4 receptor (Homo sapiens, UniProt Q9H3N8).
T1 construct: expressed in transfected cells; host or cells: HEKf cells transduced with baculovirus
The series can be described thus: H4 Antagonist Functional cAMP Gi Assay. It counts as cell-based. As to conditions: H4 antagonist activity; for Kb: read-out: Human H4 CAMP fpKb (converted). The method, then:
H4 Antagonist Functional cAMP Gi Assay
HEKf cells were infected overnight using baculovirus expressing the human H4 receptor, then centrifuged at 1,200 rpm for 5 min, frozen in cell freezing medium (Sigma) and stored at −150° C. On the day of assay, the cells were thawed and resuspended in HBSS with 500 nM IBMX to achieve a density of 1,500 cells/well. H4 ligands were prepared in DMSO and stamped by LabCyte ECHO acoustic dispensing at 25 nL in low volume plates. 10 μL/well cells were plated in the presence of 1 μM forskolin, subjected to centrifugation at 1,200 rpm for 1 min and incubated for 30 min prior to addition of Cisbio cAMP detection reagents to a total volume 20 μL/well. For the antagonist assay, cells were pre-incubated with H4 antagonist ligands for 30 min prior to addition of EC80 concentration of histamine and a further 30 min incubation. Following detection reagent addition and shaking at room temperature for 60 min, cAMP accumulation was measured using HTRF on a PheraStar plate reader. EC50 values were generated using a 4-parameter logistical fit equation to quantify agonist potencies. Functional antagonist affinity values were generated using the Cheng-Prusoff equation to calculate a pKb value using the antagonist assay data.

Another series concerns the target hERG (Homo sapiens, UniProt Q12809). The series can be described thus: hERG Assay (QPatch automated patch clamp; single-concentration assay at 30 μM and pIC50 assay). As to conditions: for inhibition at 30 µM: human, CHO cells stably expressing hERG.

Counter-ions that a name gives are not always drawn.

T1 sequence (Q9H3N8 whole entry): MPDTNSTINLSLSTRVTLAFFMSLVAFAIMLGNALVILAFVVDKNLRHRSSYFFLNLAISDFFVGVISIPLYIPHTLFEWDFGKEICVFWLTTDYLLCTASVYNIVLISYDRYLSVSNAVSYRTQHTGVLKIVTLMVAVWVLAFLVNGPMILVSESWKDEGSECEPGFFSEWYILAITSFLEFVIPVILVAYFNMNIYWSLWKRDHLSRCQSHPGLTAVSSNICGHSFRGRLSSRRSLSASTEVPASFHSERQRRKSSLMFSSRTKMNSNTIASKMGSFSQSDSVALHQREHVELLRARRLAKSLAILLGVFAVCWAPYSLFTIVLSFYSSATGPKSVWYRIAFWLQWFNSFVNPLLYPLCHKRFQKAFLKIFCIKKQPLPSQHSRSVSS
hERG, sequence (Q12809 whole entry): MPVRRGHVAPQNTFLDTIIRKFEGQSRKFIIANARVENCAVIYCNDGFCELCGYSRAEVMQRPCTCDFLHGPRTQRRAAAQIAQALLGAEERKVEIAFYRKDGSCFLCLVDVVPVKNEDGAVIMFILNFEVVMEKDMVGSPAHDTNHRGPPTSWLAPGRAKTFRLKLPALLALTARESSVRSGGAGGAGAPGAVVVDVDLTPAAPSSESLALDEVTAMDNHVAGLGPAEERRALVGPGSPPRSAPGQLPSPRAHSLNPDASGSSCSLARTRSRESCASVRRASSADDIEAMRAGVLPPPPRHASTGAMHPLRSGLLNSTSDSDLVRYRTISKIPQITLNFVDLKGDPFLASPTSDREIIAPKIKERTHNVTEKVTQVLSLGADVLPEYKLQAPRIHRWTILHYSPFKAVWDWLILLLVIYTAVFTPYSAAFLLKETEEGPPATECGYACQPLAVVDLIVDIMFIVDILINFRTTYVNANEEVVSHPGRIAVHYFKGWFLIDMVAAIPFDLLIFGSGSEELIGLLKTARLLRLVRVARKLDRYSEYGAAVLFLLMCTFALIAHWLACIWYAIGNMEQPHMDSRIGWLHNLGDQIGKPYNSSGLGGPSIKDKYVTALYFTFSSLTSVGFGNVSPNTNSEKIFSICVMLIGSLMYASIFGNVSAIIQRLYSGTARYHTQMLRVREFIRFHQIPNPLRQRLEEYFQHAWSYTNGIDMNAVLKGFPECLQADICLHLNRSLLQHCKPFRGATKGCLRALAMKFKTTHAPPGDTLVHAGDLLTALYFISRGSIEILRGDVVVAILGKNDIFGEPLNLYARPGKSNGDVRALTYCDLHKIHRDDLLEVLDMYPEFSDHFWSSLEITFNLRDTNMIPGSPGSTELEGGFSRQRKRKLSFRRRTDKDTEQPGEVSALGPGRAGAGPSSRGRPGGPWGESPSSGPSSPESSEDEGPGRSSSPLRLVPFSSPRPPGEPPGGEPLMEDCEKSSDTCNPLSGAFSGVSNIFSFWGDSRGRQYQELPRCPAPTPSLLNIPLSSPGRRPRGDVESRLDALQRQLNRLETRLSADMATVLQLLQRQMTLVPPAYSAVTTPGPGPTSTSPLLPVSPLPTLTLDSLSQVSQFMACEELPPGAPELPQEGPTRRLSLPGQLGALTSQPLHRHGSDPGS

As for `CN[C@@H]1CCN(c2cc(-c3cn[nH]c3C3CC3)nc(N)n2)C1.O=C(O)C(F)(F)F.O=C(O)C(F)(F)F` [Example 9-4], the “Human H4 CAMP fpKb” value at human H4 receptor turned out to be 7.6. Further, at hERG (single concentration 30 μM, QPatch), the “hERG % inhibition at 30 μM” value is 17%.

On to `CN[C@@H]1CCN(c2cc(-c3cnn(CC(F)(F)F)c3)nc(N)n2)C1` [Example 8-8, dihydrochloride], for which, at human H4 receptor, the Kb is 398 nM. The inhibition at 30 µM against hERG is 44%.

Consider `CCn1cc(-c2cc(N3CC[C@@H](NC)C3)nc(N)n2)cn1` [Example 8-3, dihydrochloride], for which the Kb at human H4 receptor is 39.8 nM. This compound also returned an inhibition at 30 µM against hERG of 12%.

For the compound `CN[C@@H]1CCN(c2cc(-c3cn(C)nc3C3CC3)nc(N)n2)C1` [Example 11-3, dihydrochloride], at human H4 receptor, the Kb is 501 nM. This compound returned an inhibition at 30 µM against hERG of 34%.

For the compound `CN[C@@H]1CCN(c2cc(-c3cn[nH]c3)nc(N)n2)C1` [Example 8-1], the Kb on human H4 receptor was 100 nM. Moreover, on hERG, the IC50 is at least 100000 nM.

For the compound `CNC1CN(c2cc(-c3[nH]ncc3C)nc(N)n2)C1` [Example 16-3, ditrifluoroacetate], the Kb at human H4 receptor is 7.94 nM.

In the case of `CNC1(C)CCN(c2cc(-c3[nH]ncc3C)nc(N)n2)C1` (stereo not shown) [Example 16-2, ditrifluoroacetate], on human H4 receptor, the Kb was 50.1 nM. At 30 µM the inhibition against hERG was 9%.

On to `CN[C@@H]1CCN(c2cc(-c3ccn(C(F)F)n3)nc(N)n2)C1` [Example 2-2, (R)-4-(1-(difluoromethyl)-1H-pyrazol-3-yl)-6-(3-(methylamino)pyrrolidin-1-yl)pyrimidin-2-amine dihydrochloride], for which the Kb on human H4 receptor is 50.1 nM. The compound further registered an inhibition at 30 µM at hERG of 99%.

As to `CN[C@@H]1CCN(c2cc(-c3cnn(C4COC4)c3)nc(N)n2)C1` [Example 8-11], the Kb at human H4 receptor is 501 nM.

Turning to `CN[C@@H]1CCN(c2cc(-c3[nH]nc(C(F)(F)F)c3C)nc(N)n2)C1` [Example 17-12], on human H4 receptor, the Kb was 1.58 nM. On hERG, this compound gave an inhibition at 30 µM of 60%.

As to `CN[C@@H]1CCN(c2cc(-c3[nH]nc4c3CCC4)nc(N)n2)C1` [7.4], the Kb on human H4 receptor was 6.31 nM. In addition, testing at 30 µM on hERG gave an inhibition of 16%.

Regarding `CN[C@@H]1CCN(c2cc(-c3cnn(C(F)F)c3)nc(N)n2)C1` [Example 8-6], at human H4 receptor, the Kb is 20 nM. The compound further showed an IC50 on hERG of 6310 nM.

In the case of `Cc1cn[nH]c1-c1cc(N2CC(N)C2)nc(N)n1` [Example 16-4, ditrifluoroacetate], the Kb on human H4 receptor was 398 nM.

For the compound `CN[C@@H]1CCN(c2cc(-c3[nH]ncc3F)nc(N)n2)C1` [Example 16-10, ditrifluoroacetate], the Kb at human H4 receptor was 12.6 nM. Besides, 30 µM produced 21% inhibition at hERG.

For the compound `Cc1cn[nH]c1-c1cc(N2CC3CCNC3C2)nc(N)n1` (stereo not shown) [Example 16-6], at human H4 receptor, the Kb was 631 nM.

Regarding `CN[C@@H]1CCN(c2cc(-c3cnn(CCC#N)c3)nc(N)n2)C1` [Example 8-12], the Kb at human H4 receptor was 794 nM.

As to `CCc1cc(-c2cc(N3CC[C@@H](NC)C3)nc(N)n2)[nH]n1` [Example 15-1], the Kb at human H4 receptor is 3.16 nM. At hERG, this compound came in with an inhibition at 30 µM of 68%.

`CN[C@@H]1CCN(c2cc(-c3[nH]nc(Cl)c3Cl)nc(N)n2)C1` [Example 17-15]: the Kb on human H4 receptor is 0.0501 nM. On hERG, this compound registered an inhibition at 30 µM of 75%.

For the compound `CN[C@H]1CCN(c2cc(-c3[nH]ncc3C)nc(N)n2)C1` [Example 16-1, ditrifluoroacetate], the Kb on human H4 receptor was 31.6 nM. The compound further displayed an inhibition at 30 µM against hERG of 32%.

On to `CNC1(C)CN(c2cc(-c3[nH]ncc3C)nc(N)n2)C1` [Example 16-5, ditrifluoroacetate], for which the Kb on human H4 receptor was 20 nM.

With `CN[C@@H]1CCN(c2cc(-c3[nH]nc(C)c3Cl)nc(N)n2)C1` [Example 7-2], the Kb at human H4 receptor is 0.251 nM. At hERG, this compound yielded an inhibition at 30 µM of 39%.

For `CN[C@@H]1CCN(c2cc(-c3cnn(CC#N)c3)nc(N)n2)C1` [Example 8-13], on human H4 receptor, the Kb is 200 nM.

`CN[C@@H]1CCN(c2cc(-c3cc(C)n(C(F)F)n3)nc(N)n2)C1` [Example 5-2]: the Kb on human H4 receptor was 398 nM. On hERG, this compound returned an inhibition at 30 µM of 71%.

Take `CN[C@@H]1CCN(c2cc(-c3cc(C4CC4)n[nH]3)nc(N)n2)C1` [Example 3-2, dihydrochloride]: on human H4 receptor, the Kb was 100 nM. Moreover, the inhibition at 30 µM on hERG was 39%.

With `CCOC(=O)N1CCCC(n2cc(-c3cc(N4CC[C@@H](NC)C4)nc(N)n3)cn2)C1` (stereo partly shown) [Example 8-14], the Kb at human H4 receptor was 794 nM.

Take `CN[C@@H]1CCN(c2cc(-c3cn(C)nc3C(F)(F)F)nc(N)n2)C1` [Example 11-4, dihydrochloride]: the Kb at human H4 receptor is 316 nM. At hERG, this compound yielded an inhibition at 30 µM of 46%.

With `CN[C@@H]1CCN(c2cc(-c3cn(C)nc3C#N)nc(N)n2)C1` [Example 11-5], the Kb on human H4 receptor was 794 nM.

In the case of `CN[C@@H]1CCN(c2cc(-c3nn(C(F)F)cc3C)nc(N)n2)C1` [Example 6-2], the Kb on human H4 receptor was 39.8 nM. This compound had an inhibition at 30 µM at hERG of 94%.

Take `CCc1[nH]ncc1-c1cc(N2CC[C@@H](NC)C2)nc(N)n1` [Example 9-2]: the Kb at human H4 receptor is 12.6 nM. This compound returned an inhibition at 30 µM against hERG of 12%.

As for `CN[C@@H]1CCN(c2cc(-c3cn[nH]c3C(F)F)nc(N)n2)C1` [Example 9-5], the Kb at human H4 receptor was 39.8 nM.

Regarding `CN[C@@H]1CCN(c2cc(-c3cnn(CCO)c3)nc(N)n2)C1` [Example 8-9], the Kb at human H4 receptor was 631 nM.

As to `CN[C@@H]1CCN(c2cc(-c3cc(C)n(C)n3)nc(N)n2)C1` [Example 5-1, diformate], the Kb at human H4 receptor is 398 nM.

For `Cc1n[nH]c(-c2cc(N3CC[C@@H](N)C3)nc(N)n2)c1C` [Example 7-6], the Kb on human H4 receptor is 398 nM.

As for `CCc1n[nH]c(-c2cc(N3CC[C@@H](N)C3)nc(N)n2)c1C` [Example 7-8], on human H4 receptor, the Kb is 126 nM.

As to `CN[C@@H]1CCN(c2cc(-c3[nH]nc(C)c3C(F)(F)F)nc(N)n2)C1` [Example 17-2], on human H4 receptor, the Kb is 5.01 nM. Besides, the inhibition at 30 µM on hERG amounted to 39%.

As to `Nc1nc(-c2cnn(C(F)(F)F)c2)cc(N2CC[C@@H](N)C2)n1` [Example 8-15, dihydrochloride], the Kb on human H4 receptor was 2.51 nM. At hERG, this compound came in with an IC50 of at least 100000 nM and an inhibition at 30 µM of 44%.

As for `CN[C@@H]1CCN(c2cc(-c3ccn(C)n3)nc(N)n2)C1` [Example 2-1, (R)-4-(1-methyl-1H-pyrazol-3-yl)-6-(3-(methylamino)pyrrolidin-1-yl)pyrimidin-2-amine], on human H4 receptor, the Kb was 39.8 nM. In addition, the IC50 against hERG is at least 100000 nM.

As to `CN[C@@H]1CCN(c2cc(-c3cc(C(F)F)n[nH]3)nc(N)n2)C1` [Example 3-3, (R)-4-(3-(difluoromethyl)-1H-pyrazol-5-yl)-6-(3-(methylamino)pyrrolidin-1-yl)pyrimidin-2-amine], the Kb at human H4 receptor was 50.1 nM.

For the compound `CN[C@@H]1CCN(c2cc(-c3cc(C)n[nH]3)nc(N)n2)C1` [Example 3-1, (R)-4-(3-methyl-1H-pyrazol-5-yl)-6-(3-(methylamino)pyrrolidin-1-yl)pyrimidin-2-amine], at human H4 receptor, the Kb is 7.94 nM. In addition, on hERG, the inhibition at 30 µM is under 1%.

Take `CN[C@@H]1CCN(c2cc(-c3ccn[nH]3)nc(N)n2)C1` [Example 1-1, (R)-4-(3-(methylamino)pyrrolidin-1-yl)-6-(1H-pyrazol-5-yl)pyrimidin-2-amine]: the Kb on human H4 receptor is 50.1 nM. For the same compound, the 50% inhibitory concentration (IC50) at hERG was at least 100000 nM.

In the case of `Nc1nc(-c2[nH]ncc2Cl)cc(N2CC[C@@H](N)C2)n1` [Example 16-11], the Kb on human H4 receptor is 7.94 nM. The compound also registered an inhibition at 30 µM on hERG of 27%.

In the case of `CN[C@@H]1CCN(c2cc(-c3cc(C(F)(F)F)n[nH]3)nc(N)n2)C1` [Example 3-4, (R)-4-(3-(methylamino)pyrrolidin-1-yl)-6-(3-(trifluoromethyl)-1H-pyrazol-5-yl)pyrimidin-2-amine ditrifluoroacetate salt], the Kb on human H4 receptor is 63.1 nM. On hERG, testing at 30 µM gave an inhibition of 45%.

`CCn1cc(-c2cc(N3CC[C@@H](N)C3)nc(N)n2)cn1` [Example 8-17, dihydrochloride]: the Kb on human H4 receptor is 50.1 nM. At hERG, this compound had an inhibition at 30 µM of 10%.

On to `CN[C@@H]1CCN(c2cc(-c3[nH]ncc3OC)nc(N)n2)C1` [Example 4-4, (R)-4-(4-methoxy-1H-pyrazol-5-yl)-6-(3-(methylamino)pyrrolidin-1-yl)pyrimidin-2-amine], for which the Kb at human H4 receptor is 79.4 nM. At hERG, this compound registered an inhibition at 30 µM of 14%.

`CN[C@@H]1CCN(c2cc(-c3cnn(C)c3C#N)nc(N)n2)C1` [Example 12-2]: the Kb at human H4 receptor is 251 nM. Further, on hERG, at 30 µM the inhibition was 14%.

Regarding `CN[C@@H]1CCN(c2cc(-c3ccnn3C)nc(N)n2)C1` [Example 1-2, (R)-4-(1-methyl-1H-pyrazol-5-yl)-6-(3-(methylamino)pyrrolidin-1-yl)pyrimidin-2-amine dihydrochloride], at human H4 receptor, the Kb is 794 nM.

On to `Cc1n[nH]c(-c2cc(N3CC[C@@H](N)C3)nc(N)n2)c1Cl` [Example 7-7], for which the Kb on human H4 receptor is 2 nM. At hERG, this compound yielded an inhibition at 30 µM of 30%.

Regarding `CN[C@@H]1CCN(c2cc(-c3[nH]nc(C(F)F)c3C)nc(N)n2)C1` [Example 17-10, ditrifluoroacetate], the Kb on human H4 receptor was 0.251 nM. At hERG, this compound had an inhibition at 30 µM of 57%.

`Nc1nc(-c2cnn(CC(F)(F)F)c2)cc(N2CC[C@@H](N)C2)n1` [Example 8-18, dihydrochloride]: the Kb at human H4 receptor is 501 nM.

As usually defined, the inhibition is the relative decrease from the control value, in per cent. In general, IC50 refers to the midpoint of a concentration-inhibition curve. A lower IC50 goes with greater potency.
